Data reported in US8008290B2, “Compounds” (priority 2009, dated 2011).

Key:
[1] = target: T1, Human recombinant cathepsin K (Homo sapiens, UniProt P43235); experiment: In vitro cathepsin Ki inhibition measurement, cathepsin K; assay type: biochemical; conditions: for Ki: human cathepsin K, steady-state, competitive model, read-out: In vitro Ki (nM) vs Cath K
T1 sequence (P43235 115-329): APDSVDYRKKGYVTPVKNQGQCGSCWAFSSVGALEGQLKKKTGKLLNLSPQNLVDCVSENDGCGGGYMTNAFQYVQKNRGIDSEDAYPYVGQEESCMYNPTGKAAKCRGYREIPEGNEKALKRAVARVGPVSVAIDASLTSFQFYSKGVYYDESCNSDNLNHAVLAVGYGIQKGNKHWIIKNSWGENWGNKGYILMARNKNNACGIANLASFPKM
Protocol: Stock solutions of substrate or inhibitor were made up to 10 mM in 100% dimethylsulfoxide (DMSO) (Rathburns, Glasgow, U.K.) and diluted as appropriately required. In all cases the DMSO concentration in the assays was maintained at less than 1% (vol./vol.). The equilibrium inhibition constants (Ki^ss) for each compound were measured under steady-state conditions monitoring enzyme activity as a function of inhibitor concentration. […] B. […] The apparent inhibition constant (Ki) for each compound was determined on the basis that inhibition was reversible and occurred by a pure-competitive mechanism. […] F. Trends Biochem. […] Morrison, J. F. Biochim. Biophys. […] Curves were fitted by non-linear regression analysis (Prism) using a fixed value for the enzyme concentration.

[2] = target: T2, Human recombinant cathepsin S (Homo sapiens, UniProt P25774); experiment: In vitro cathepsin Ki inhibition measurement, cathepsin S; assay type: biochemical
T2 construct: purchased Merck 219343; host or cells: E. coli
Protocol: Stock solutions of substrate or inhibitor were made up to 10 mM in 100% dimethylsulfoxide (DMSO) (Rathburns, Glasgow, U.K.) and diluted as appropriately required. In all cases the DMSO concentration in the assays was maintained at less than 1% (vol./vol.). The equilibrium inhibition constants (Ki^ss) for each compound were measured under steady-state conditions monitoring enzyme activity as a function of inhibitor concentration. […] The apparent inhibition constant (Ki) for each compound was determined on the basis that inhibition was reversible and occurred by a pure-competitive mechanism. […] Biophys. […] Curves were fitted by non-linear regression analysis (Prism) using a fixed value for the enzyme concentration.

T2 sequence (P25774 115-331): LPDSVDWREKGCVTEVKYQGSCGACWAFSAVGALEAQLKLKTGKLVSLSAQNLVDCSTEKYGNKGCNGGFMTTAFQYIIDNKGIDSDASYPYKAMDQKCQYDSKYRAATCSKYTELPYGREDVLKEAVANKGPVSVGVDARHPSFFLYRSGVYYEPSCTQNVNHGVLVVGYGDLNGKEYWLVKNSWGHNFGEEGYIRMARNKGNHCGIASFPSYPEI

SMILES	Ki [1] [nM]	fold improvement in in vitro potency against human cathepsin S ([2]; relative to compound 3) [fold]	fold improvement in in vitro potency against human cathepsin K ([1]; relative to compound 3) [fold]	fold improvement in in vitro potency against human cathepsin S ([2]; relative to Compound 1) [fold]	fold improvement in in vitro potency against human cathepsin K ([1]; relative to Compound 1) [fold]
O=C(N[C@H](C(=O)N1C[C@H](Cl)[C@H]2OCC(=O)[C@H]21)C1CCCCC1)c1ccccc1 [EXAMPLE 1, N—((S)-2-((3aS,6S,6aS)-6-chloro-3-oxodihydro-2H-furo[3,2-b]pyrrol-4(5H,6H,6aH)-yl)-1-cyclohexyl-2-oxoethyl)benzamide]	35	–	–	–	–
O=C(N[C@@H](CC1CCCCC1)C(=O)N1CC[C@H]2OCC(=O)[C@H]21)c1ccccc1 [Prior art compound 38, reference compound]	> 4000	–	–	–	–
O=C(N[C@H](C(=O)N1CC[C@H]2OCC(=O)[C@H]21)C1CCCCC1)c1cccc(-n2cnnn2)c1 [Compound 3]	560	–	–	–	–
O=C(N[C@H](C(=O)N1C[C@H](Cl)[C@H]2OCC(=O)[C@H]21)C1CCCCC1)c1cccc(-n2cnnn2)c1 [EXAMPLE 2, N—((S)-2-((3aS,6S,6aS)-6-chloro-3-oxodihydro-2H-furo[3,2-b]pyrrol-4(5H,6H,6aH)-yl)-1-cyclohexyl-2-oxoethyl)-3-(1H-tetrazol-1-yl)benzamide]	27	47	20.5	–	–
O=C(N[C@H](C(=O)N1C[C@H](Cl)[C@H]2OCC(=O)[C@H]21)C1CCCCC1)c1cccc(-n2ccnc2)c1 [EXAMPLE 3, N—((S)-2-((3aS,6S,6aS)-6-chloro-3-oxodihydro-2H-furo[3,2-b]pyrrol-4(5H,6H,6aH)-yl)-1-cyclohexyl-2-oxoethyl)-3-(1H-imidazol-1-yl)benzamide]	23	–	–	–	–
O=C(N[C@H](C(=O)N1C[C@H](F)[C@H]2OCC(=O)[C@H]21)C1CCCCC1)c1ccccc1 [Compound 2]	95	–	–	3.8	3.2
O=C(N[C@H](C(=O)N1C[C@H](F)[C@H]2OCC(=O)[C@H]21)C1CCCCC1)c1cccc(-n2cnnn2)c1 [Compound 4]	340	3.4	1.7	–	–
O=C(N[C@H](C(=O)N1C[C@@H](Cl)[C@H]2OCC(=O)[C@H]21)C1CCCCC1)c1cccc(-n2ccnc2)c1 [Compound 5]	230	–	–	–	–
